Data: ChEMBL document CHEMBL1201862, “PubChem BioAssay data set” (2004)
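In this assay, cells in 96-well plates receive the compound at five concentrations for 48 hours. Endpoints are linearly interpolated between the surrounding concentrations. GI50: concentration for 50% inhibition of growth.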 Active and inactive are the calls of the source. No stated cut-off is given here; in the data, active = GI50 up to about 1.1 µM and inactive = higher.

What was measured:
Assay in all cases: NCI tumour cell line growth inhibition, 48 h
NCI-H226 = test system: NCI-H226
EKVX = test system: EKVX
DU-145 = test system: DU-145
SN12C = test system: SN12C
SF-268 = test system: SF-268
RXF 393 = test system: RXF 393
HOP-92 = test system: HOP-92
Hs-578T = test system: Hs-578T
SK-MEL-5 = test system: SK-MEL-5
NCI-H460 = test system: NCI-H460
OVCAR-8 = test system: OVCAR-8
NCI-H522 = test system: NCI-H522
SW-620 = test system: SW-620
CAKI-1 = test system: CAKI-1
SK-OV-3 = test system: SK-OV-3
UACC-62 = test system: UACC-62
T47D = test system: T47D
U-251 = test system: U-251
HT-29 = test system: HT-29
K562 = test system: K562
HOP-62 = test system: HOP-62
NCI-H23 = test system: NCI-H23
MOLT-4 = test system: MOLT-4
M14 = test system: M14
OVCAR-4 = test system: OVCAR-4
PC-3 = test system: PC-3
OVCAR-5 = test system: OVCAR-5
MDA-MB-231 = test system: MDA-MB-231
IGROV-1 = test system: IGROV-1
UO-31 = test system: UO-31
786-0 = test system: 786-0
TK-10 = test system: TK-10
BT-549 = test system: BT-549
SR = test system: SR
A498 = test system: A498
HL-60 = test system: HL-60
A549 = test system: A549
HCC 2998 = test system: HCC 2998
UACC-257 = test system: UACC-257
OVCAR-3 = test system: OVCAR-3
MDA-N = test system: MDA-N
Malme-3M = test system: Malme-3M
NCI/ADR-RES = test system: NCI/ADR-RES
SK-MEL-28 = test system: SK-MEL-28
SF-295 = test system: SF-295
ACHN = test system: ACHN
MCF7 = test system: MCF7
COLO 205 = test system: COLO 205
HCT-15 = test system: HCT-15
MDA-MB-435 = test system: MDA-MB-435
RPMI-8226 = test system: RPMI-8226
KM12 = test system: KM12
CCRF-CEM = test system: CCRF-CEM
SF-539 = test system: SF-539
SNB-19 = test system: SNB-19
HCT-116 = test system: HCT-116
LOX IMVI = test system: LOX IMVI
SK-MEL-2 = test system: SK-MEL-2
SNB-75 = test system: SNB-75

CCN(CC)c1ccc(C2NC(=O)c3ccccc3N2)cc1 (configuration not stated)
GI50 (NCI-H226): 2.98 µM (inactive) | GI50 (EKVX): 5.24 µM (inactive) | GI50 (DU-145): 1.48 µM (inactive) | GI50 (SN12C): 9.98 µM (inactive) | GI50 (SF-268): 8.57 µM (inactive) | GI50 (RXF 393): 7.52 µM (inactive) | GI50 (HOP-92): 3.05 µM (inactive) | GI50 (Hs-578T): 9.64 µM (inactive) | GI50 (SK-MEL-5): 1.15 µM (inactive) | GI50 (NCI-H460): 1.21 µM (inactive) | GI50 (OVCAR-8): 3.62 µM (inactive) | GI50 (NCI-H522): 14.8 µM (inactive) | GI50 (SW-620): 1.5 µM (inactive) | GI50 (CAKI-1): 2.82 µM (inactive) | GI50 (SK-OV-3): 3.74 µM (inactive) | GI50 (UACC-62): 3.1 µM (inactive) | GI50 (T47D): > 100 µM (inactive) | GI50 (U-251): 4.34 µM (inactive) | GI50 (HT-29): 2.31 µM (inactive) | GI50 (K562): 1.27 µM (inactive) | GI50 (HOP-62): 5.7 µM (inactive) | GI50 (NCI-H23): 2.77 µM (inactive) | GI50 (MOLT-4): 3.55 µM (inactive) | GI50 (M14): 2.93 µM (inactive) | GI50 (OVCAR-4): > 100 µM (inactive) | GI50 (PC-3): 3.32 µM (inactive) | GI50 (OVCAR-5): > 22 µM (inactive) | GI50 (MDA-MB-231): 1.88 µM (inactive) | GI50 (IGROV-1): 5.24 µM (inactive) | GI50 (UO-31): > 24.5 µM (inactive) | GI50 (786-0): 2.99 µM (inactive) | GI50 (TK-10): > 100 µM (inactive) | GI50 (BT-549): > 100 µM (inactive) | GI50 (SR): 0.557 µM (active) | GI50 (A498): 4.95 µM (inactive) | GI50 (HL-60): 0.522 µM (active) | GI50 (A549): 3.27 µM (inactive) | GI50 (HCC 2998): 2.19 µM (inactive) | GI50 (UACC-257): > 100 µM (inactive) | GI50 (OVCAR-3): 2.82 µM (inactive) | GI50 (MDA-N): 0.847 µM (active) | GI50 (Malme-3M): > 28.4 µM (inactive) | GI50 (NCI/ADR-RES): 1.85 µM (inactive) | GI50 (SK-MEL-28): > 100 µM (inactive) | GI50 (SF-295): 3.01 µM (inactive) | GI50 (ACHN): 7.03 µM (inactive) | GI50 (MCF7): 3.73 µM (inactive) | GI50 (COLO 205): 1.63 µM (inactive) | GI50 (HCT-15): 1.13 µM | GI50 (MDA-MB-435): 0.698 µM (active) | GI50 (RPMI-8226): 3.37 µM (inactive) | GI50 (KM12): 2.15 µM (inactive) | GI50 (CCRF-CEM): 0.641 µM (active) | GI50 (SF-539): 2.71 µM (inactive) | GI50 (SNB-19): 17.1 µM (inactive) | GI50 (HCT-116): 1.48 µM (inactive) | GI50 (LOX IMVI): 2.95 µM (inactive)

CC(=O)CCN1CC2CN=NC2(C#N)C1 (configuration not stated)
GI50 (NCI-H226): 20.7 µM (inactive) | GI50 (EKVX): > 100 µM (inactive) | GI50 (DU-145): > 100 µM (inactive) | GI50 (SN12C): > 100 µM (inactive) | GI50 (SF-268): > 100 µM (inactive) | GI50 (RXF 393): 94.4 µM (inactive) | GI50 (HOP-92): 22.3 µM (inactive) | GI50 (Hs-578T): 1.65 µM (inactive) | GI50 (SK-MEL-5): > 100 µM (inactive) | GI50 (NCI-H460): > 100 µM (inactive) | GI50 (OVCAR-8): > 100 µM (inactive) | GI50 (NCI-H522): 1.79 µM (inactive) | GI50 (SW-620): 17 µM (inactive) | GI50 (CAKI-1): 0.379 µM (active) | GI50 (UACC-62): > 100 µM (inactive) | GI50 (T47D): 35.6 µM (inactive) | GI50 (U-251): > 100 µM (inactive) | GI50 (HT-29): > 100 µM (inactive) | GI50 (K562): 6.7 µM (inactive) | GI50 (HOP-62): > 100 µM (inactive) | GI50 (NCI-H23): > 100 µM (inactive) | GI50 (MOLT-4): 14.7 µM (inactive) | GI50 (OVCAR-4): > 100 µM (inactive) | GI50 (PC-3): > 100 µM (inactive) | GI50 (OVCAR-5): > 100 µM (inactive) | GI50 (MDA-MB-231): > 100 µM (inactive) | GI50 (IGROV-1): > 100 µM (inactive) | GI50 (UO-31): > 100 µM (inactive) | GI50 (786-0): 36.6 µM (inactive) | GI50 (TK-10): > 100 µM (inactive) | GI50 (BT-549): > 100 µM (inactive) | GI50 (SR): > 100 µM (inactive) | GI50 (A498): > 100 µM (inactive) | GI50 (HL-60): 14.3 µM (inactive) | GI50 (A549): > 100 µM (inactive) | GI50 (HCC 2998): > 100 µM (inactive) | GI50 (UACC-257): > 100 µM (inactive) | GI50 (OVCAR-3): > 100 µM (inactive) | GI50 (MDA-N): 75.7 µM (inactive) | GI50 (Malme-3M): 69.7 µM (inactive) | GI50 (NCI/ADR-RES): > 100 µM (inactive) | GI50 (SK-MEL-28): > 100 µM (inactive) | GI50 (SF-295): > 100 µM (inactive) | GI50 (ACHN): 24.8 µM (inactive) | GI50 (MCF7): 35.2 µM (inactive) | GI50 (COLO 205): 36.2 µM (inactive) | GI50 (HCT-15): 69 µM | GI50 (MDA-MB-435): > 100 µM (inactive) | GI50 (SK-MEL-2): > 100 µM (inactive) | GI50 (KM12): > 100 µM (inactive) | GI50 (CCRF-CEM): 15.9 µM (inactive) | GI50 (SNB-19): > 100 µM (inactive) | GI50 (HCT-116): 34 µM (inactive) | GI50 (LOX IMVI): 49 µM (inactive) | GI50 (SNB-75): > 100 µM (inactive)
